This is an account of results in patent US20260097111A1, “ETHER LIPIDS FOR HYPERACTIVATION OF MAMMALIAN DENDRITIC CELLS” (priority 2022, published 2026).

By cell viability is commonly meant a read-out of living cells in per cent, often relative to untreated cells. A high value points to better survival.

Series [1] relates to human monocyte-derived dendritic cells (moDCs). Kind of series: IL-1β secretion by human moDCs treated with lipid and R848. Format: cell-based. The settings on record: for IL-1β secretion: human moDCs. The protocol: (§1) Human monocytes were isolated from Leukopaks purchased from Miltenyi using the StraightFrom Leukopak CD14 microbead kit (Miltenyi). Isolations were completed following manufacturer's instructions. Monocytes were then aliquoted and frozen in fetal bovine serum containing 10% dimethyl sulfoxide. For studies with monocyte-derived dendritic cell (moDC) cultures, monocytes were thawed and cultured in RPMI medium containing 10% FBS, 50 units/mL penicillin, […] streptomycin, 2 mM L-glutamine, 1 mM sodium pyruvate, […] beta-mercaptoethanol, 10 mM HEPES, and Gibco MEM non-essential amino acids (R10 media). To differentiate monocytes into moDCs, recombinant human GM-CSF (50 ng/mL) and IL-4 (25 ng/mL) were added to R10 media. Cells were cultured for 6 days with GM-CSF and IL-4, with an additional cell feeding with R10 containing GM-CSF and IL-4 on day 3.
Six days after differentiation, moDC were collected and counted. Cells were plated into 96-well flat-bottom plates at 1×10^5 cells/well. Cells were treated with or without 1 μg/mL R848 (final) and with or without a hyperactivating lipid (or vehicle control). In some experiments, MCC950, an inhibitor of the NLRP3 inflammasome, was added at a final concentration of 10 uM. In some experiments, nigericin, which causes NLRP3 inflammasome activation and subsequent pyroptosis, was used as a positive control at 20 uM. Cells and stimuli totaled a final volume of […].
Lipid stocks were then further diluted in PBS to treat cells.
(§2) After an overnight incubation, cells and culture supernatant were used for downstream readouts. One hundred and fifty microliters of cell supernatant were collected. Viability was measured using the CellTiter-Glo assay (Promega) which measures ATP content from cells. Fifty microliters of CellTiter-Glo reagent were added to 50 μL of cells. Luminescence was quantified on a SpectraMax m5e plate reader using an integration time of 500 milliseconds. Viability data were set relative to control conditions where cells were treated with only R848. To measure IL-1β secretion, the human IL-1β Lumit kit (Promega) was used to assay cell culture supernatant. Culture supernatant samples were incubated with enzyme-linked antibodies in a 384-well plate for 1 hour before addition of luminescent substrate. Samples were measured for luminescence with an integration time of 500 milliseconds. IL-1β concentrations of samples was determined by interpolation from a standard curve using 4-parameter logistic regression analysis. Studies were performed on three different human donor samples, and each biological condition was tested in triplicate. Graphed data represent means from each donor.
as §1, with “Human moDC Production. Human” for “Human”, “(Miltenyi) according to the” for “(Miltenyi). Isolations were completed following”, “To differentiate” for “For studies with”, “pyruvate, and” for “pyruvate,”, “beta-mercaptoethanol” for “beta-mercaptoethanol, 10 mM HEPES, and Gibco MEM non-essential amino acids”
Hyperactivating Lipid Formulation—Compound 10. Lipid stocks were formulated at 200 μg/mL lipid in 5% Kolliphor P407 (KP407) in PBS.

A short description of a further series: Solubility observations. The format is physicochemical.
Series [2] has as its system human moDCs. Put plainly: Cell viability of human moDCs (CellTiter-Glo). The format is cell-based. The following applies: human moDCs, 20.6 μM lipid; FIG. 19. The method, then:
as §2
Measurement of Cytokine Secretion and Cell Viability. After an overnight incubation, cells and culture supernatant were used for downstream readouts. One hundred and fifty microliters of cell culture supernatant were collected. Viability was measured using the CellTiter-Glo assay (Promega) which measures ATP content from cells. Fifty microliters of CellTiter-Glo reagent were added to 50 μL of cells. Luminescence was quantified on a SpectraMax m5e plate reader using an integration time of 500 milliseconds. Viability data were set relative to control conditions where cells were treated with only R848. To measure IL-1β secretion, the human IL-1β Lumit kit (Promega) was used. […] Samples were measured for luminescence with an integration time of 500 milliseconds. IL-1β concentrations of samples was determined by interpolation from a standard curve using 4-parameter logistic regression analysis. […]

Series [3] concerns human moDCs. Kind of series: IL-6 secretion by human moDCs. The format is cell-based.
In the next series the test system is human moDC. Kind of series: IL-1β ELISA, human moDC treated with R848, DGP, MCC950. The format is cell-based. The settings on record: only R848 2.85 μM, donor HD94. The protocol:
Monocyte Isolation, Storage, and Differentiation into moDC. Human leukapheresis blood products were freshly obtained from AllCells via same day or overnight shipping at 4° C. Miltenyi StraightFrom Leukopak CD14 MicroBead isolation kits were used according to manufacturer instructions to isolate CD14+ monocytes. Briefly, leukopaks ranging in quantity from 5×10^9 to 1×10^10 total nucleated cells were evenly aliquoted into 50 mL conical tubes. Cells were incubated with CD14 microbeads and then loaded on the MultiMACS using the program “Possel2”. After washing out the negative population, CD14+ cells were eluted from the columns and counted. An aliquot of monocytes was used to stain for purity of cells to ensure that isolated live cells were […] CD11c+CD14+ by flow cytometry. […] Vials were placed in CoolCell freezing containers and placed in a −80° C. freezer and stored no longer than 1 week. Frozen cells were transferred for long-term storage to the vapor phase of a liquid nitrogen freezer until use.
To differentiate monocytes into moDC, vials of cells were taken out of the liquid nitrogen freezer and quickly thawed in a 37° C. water bath. Cells were diluted ten-fold in warmed R10++ media containing 50 units/mL benzonase. R10++ media was composed of RPMI 1640 media containing 10% fetal bovine serum, 50 units/mL penicillin, […] streptomycin, 2 mM L-glutamine, 1 mM sodium pyruvate, […] beta-mercaptoethanol, 10 mM HEPES, and 1% Gibco MEM non-essential amino acids. After gentle mixing by inversion of tubes, cells were incubated at 37° C. for 10 min. Cells were pelleted at 400×g for 5 min and supernatant was aspirated. Cells were resuspended in R10++ media and counted on the MoxiGo by diluting an aliquot in PBS containing a final concentration of 2.5 μg/mL propidium iodide. Cells were plated in T75 culture flasks at 3-6×10^7 cells per flask in a total of 20 mL R10++ media containing a final concentration of 50 ng/mL GM-CSF and 25 ng/mL IL-4. Three days after the start of culture, an additional 10 mL R10++ containing 50 ng/mL GM-CSF and 25 ng/mL IL-4 was added to each flask.
Six days after start of differentiation. R10++ media containing cells were placed into 50 mL conical tubes. Flasks were washed with an additional 10 mL PBS and also collected. […] Cells were resuspended in R10++ media and counted on the MoxiGo by diluting an aliquot in PBS containing a final concentration of 2.5 μg/mL propidium iodide. Cells were then adjusted to 1×10^6 cells/mL in R10++ media.
moDC Treatment. Human moDC were plated at 1×10^5 cells/well in 96-well flat-bottom tissue culture plates in R10++ media by adding 100 μL of cells per well. To each well, a 25 μL solution of R10++ containing 400 ng/mL GM-CSF and 200 ng/mL IL-4 was added.
Lyophilized R848 stocks were prepared as described above and frozen at −80° C. An aliquot of frozen R848 was thawed and further diluted to 11.4 μM in R10++ (4 μg/mL R848). Cell culture conditions receiving R848 treatment had 50 μL added to wells. For wells not receiving R848, 50 μL R10++ was added to wells. Lyophilized MCC950 was prepared as described above and stored at −20° C. MCC950 was further diluted to 40 uM in a prepared R10++ solution containing 11.4 μM R848. Cells receiving R848 and MCC950 treatment had 50 μL added to wells. Final concentrations of R848 and MCC950 in a total 200 μL volume were respectively 2.85 μM and 10 μM.
A4.44% solution of KP407 dissolved in sterile, distilled water was prepared at a temperature of 4° C. […]
In general terms: An ELISA detects its analyte on a solid surface through an enzyme-linked reagent.

A short description of series [4]: Serum chemokines and cytokines after SC injection. Format: in vivo, mice. The following applies: mouse, in vivo, sc. The protocol: Lipid Preparation. […] Lipids were used for chemical injections or DC treatment within one hour of their preparation.
Subcutaneous (SC) Injection. Mice were placed under Isoflurane for a few min for anesthesia. Tubes containing the chemicals were vortexed for 30 seconds, then loaded with a 1 mL Sub-Q syringe.
Blood Collection. Mice were placed under Isoflurane for approximately 10 min for anesthesia. Using a 21G needle, mice were gently poked through the skin to the submandibular space to induce bleeding. Five-Six drops were collected in a mini collect K2EDTA blood collection tube. Blood samples were transported back to Corner Therapeutics lab on ice. The blood was then centrifuged at 1500×g for 5 min. After centrifugation, blood was collected into a 96-well round bottom plate and stored at −80° C.
Measurement of Serum Chemokines and Cytokines. Secreted cytokines were measured in the supernatant by cytokine bead array using the LEGENDplex™ Mouse Murine Proinflammatory Chemokine, Murine Cytokine Release Syndrome Legendplex and LEGENDplex™ Mouse Cytokine Panel 2 (Biolegend) according to the manufacturer's protocol. Data were collected using a Quanteon Novocyte flow cytometer and analyzed using the cloud-based software provided by Biolegend.

In series [5] the test system is human moDCs. The settings on record: for IFNα2: R848 stimulation, FIG. 33B.
Setting [6] is: 41.25 μM lipid with R848, FIG. 17.

Entries after “also recorded” stand apart in the source; their conditions may differ. Where two headings read alike, the source gives them in different places.

As for “1-behenoyl-2-hydroxy-sn-glycero-3-phosphocholine [22:0 lyso PC, reference compound]”, the IL-1β secretion result in series [1] (setting [6]) is recorded as “significant increase in IL-1β”; in series [1] (41.25 μM lipid with R848 vs vehicle control, FIG. 8), “produced significantly more IL-1β”; in series [1] (41.3 uM lipid with R848, FIG. 11), “robustly induced IL-113 secretion”; in series [1] (24 hours, lipid (equimolar, in 0.5% KP407) with R848, FIG. 1B) it was “IL-1β was secreted”; in series [1] (24 hours, lipid in 4% KP407 with R848, FIG. 2B), “induced a detectable amount of IL-1β”. Moreover, the solubility result in the series “Solubility observations” was “can be dissolved in ethanol, methanol, or chloroform”.

As for `CCCCCCCCCCCCCCCCCCCCCCOC[C@@H](O)COP(=O)([O-])OCC[N+](C)(C)C` [Compound 1, 1-docosyl-sn-glycerol-3-phosphocholine], the “hyperactivation of human dendritic cells” value in series [1] (41.25 μM lipid with R848 (Compound 1 also 20.6 μM)) was “hyperactivated dendritic cells”. Further, the IL-1β secretion result in series [1] (20.6 μM lipid, FIG. 20) was “induced IL-1β secretion that was dependent upon R848 stimulation and the NLRP3 inflammasome”; in series [1] (setting [6]), “significantly increased IL-1β secretion”; in series [1] (24 hours, lipid (equimolar, in 0.5% KP407) with R848, FIG. 1B, listed as DGPC), “also induced IL-1β secretion; also recorded: induced less IL-1β than 22:0 lyso PC”. This compound returned a cell viability in the series with human moDCs [2] of more than 75%. Also, in “Solubility observations”, the solubility entry is “can be dissolved in ethanol, methanol, or chloroform”.

On to `CCOCc1nc2c(N)nc3ccccc3c2n1CC(C)(C)O` [Compound R848, resiquimod, reference compound], for which the “IL-6 in cell culture supernatant” value in the series with human moDCs [3] (human moDCs stimulated with R848, FIG. 10) is recorded as “greater than 20,000 μg/mL”. Also, the IL-6 secretion entry in the series with human moDCs [3] (human moDCs, R848 with vehicle, no hyperactivating lipid, FIG. 16) is “approximately 20,000 μg/mL”. The compound further had an IL-1β in the series on human moDC of 288 µg/mL. Further, the “cytokine and chemokine release in the serum” value in series [4] is listed as “returned to homeostasis (PBS levels) by 24 hours post injection”. Besides, the IFNα2 in the series on human moDCs [5] (donor HD92) was 94 µg/mL; in the series with human moDCs [5] (donor HD93), 82 µg/mL. In addition, in the series on human moDCs [5] (donors HD92 and HD93, FIG. 32C), the IL-12p70 result is given as “at least 100 μg/mL”.
